In patent US10385057B2, “Pyrazole compounds and methods of making and using same” (Lundbeck La Jolla Research Center, Inc., priority 2015, dated 2019) one finds IC50 and inhibition data, which are given here for 20 compounds.

As a reminder, the IC50 is the midpoint of a concentration-inhibition curve.

The target of one experiment is T1, FAAH (Mus musculus, UniProt O08914).
T1 construct: mouse brain membrane fraction or cell lysates for mouse assays; from tissue
T1 sequence (O08914 1-579): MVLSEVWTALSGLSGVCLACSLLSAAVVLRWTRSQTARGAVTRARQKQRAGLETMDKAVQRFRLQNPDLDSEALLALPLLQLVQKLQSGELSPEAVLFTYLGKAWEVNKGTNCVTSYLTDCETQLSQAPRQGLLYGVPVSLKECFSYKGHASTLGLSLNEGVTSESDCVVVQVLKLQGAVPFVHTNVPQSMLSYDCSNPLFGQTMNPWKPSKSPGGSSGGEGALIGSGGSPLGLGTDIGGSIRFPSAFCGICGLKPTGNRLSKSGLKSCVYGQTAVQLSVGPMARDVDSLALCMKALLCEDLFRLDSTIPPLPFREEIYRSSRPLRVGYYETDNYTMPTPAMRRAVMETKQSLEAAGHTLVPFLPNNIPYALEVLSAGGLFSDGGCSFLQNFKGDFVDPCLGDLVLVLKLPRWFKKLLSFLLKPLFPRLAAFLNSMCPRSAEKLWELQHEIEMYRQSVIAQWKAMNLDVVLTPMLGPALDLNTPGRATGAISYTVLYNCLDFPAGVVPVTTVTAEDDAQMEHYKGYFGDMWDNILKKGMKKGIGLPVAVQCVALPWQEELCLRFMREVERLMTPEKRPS
Kind of experiment: In vitro competitive activity-based protein profiling, mouse FAAH. The experiment is classed as biochemical. To be noted: for inhibition at 1 µM: read-out: FAAH % inh. 1 μM (mouse). Here is the method:
(§1) In Vitro Competitive Activity-Based Protein Profiling.
(§2) Proteomes (mouse brain membrane fraction or cell lysates for mouse assays; human prefrontal cortex or cell membrane fractions for human assays) (50 μL, 1.0 mg/mL total protein concentration) were preincubated with varying concentrations of inhibitors at 37° C. After 30 min, FP-Rh or HT-01 (1.0 μL, 50 μM in DMSO) was added and the mixture was incubated for another 30 min at 37° C. Reactions were quenched with SDS loading buffer (15 μL—4×) and run on SDS-PAGE. Following gel imaging, serine hydrolase activity was determined by measuring fluorescent intensity of gel bands corresponding to MAGL and FAAH using ImageJ 1.43u software.

Another experiment concerns the target T2, MAGL (Mus musculus, UniProt O35678).
T2 construct: mouse brain membrane fraction or cell lysates for mouse assays; from tissue
T2 sequence (O35678 1-303): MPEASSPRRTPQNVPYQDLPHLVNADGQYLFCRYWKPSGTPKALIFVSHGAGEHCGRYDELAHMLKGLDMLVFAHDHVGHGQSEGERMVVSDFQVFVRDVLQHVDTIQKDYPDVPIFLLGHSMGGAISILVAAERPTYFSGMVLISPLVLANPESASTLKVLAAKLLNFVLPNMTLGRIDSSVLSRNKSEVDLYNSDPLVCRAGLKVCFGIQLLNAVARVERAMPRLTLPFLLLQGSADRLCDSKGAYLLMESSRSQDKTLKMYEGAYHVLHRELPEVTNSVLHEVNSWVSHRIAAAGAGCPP
Kind of experiment: In vitro competitive activity-based protein profiling, mouse MAGL. It counts as biochemical. To be noted: for inhibition at 1 µM: read-out: MAGL % inh. 1 μM (mouse). Here is the method: as §1, §2

As for `O=C(N1CCC2(CCN(Cc3cccc(Cl)c3)C2)C1)n1cc(Cl)cn1` (single isomer, unassigned) [Example 132, (4-chloro-1H-pyrazol-1-yl)(7-(3-chlorobenzyl)-2,7-diazaspiro[4.4]nonan-2-yl)methanone], at FAAH, the IC50 is ≤ 100 nM and the inhibition at 1 µM was ≥ 75%. On MAGL, the IC50 lay within 100 to 1000 nM and the inhibition at 1 µM is ≥ 75%.
Take `O=C(N1CCC2(CCN(Cc3cccc(Cl)c3)C2)C1)n1cc(Cl)cn1` (single isomer, unassigned) [Example 133, (4-chloro-1H-pyrazole-1-carbonyl)-7-[(3-chlorophenyl)methyl]-2,7-diazaspiro[4.4]nonane]: the IC50 at FAAH is ≤ 100 nM; at MAGL it was 100 to 1000 nM.
The matching figures for `O=C(N1CCC2(CCN(Cc3ccc(Cl)c(Cl)c3)C2)C1)n1cc(Cl)cn1` (single isomer, unassigned) [Example 139, (4-chloro-1H-pyrazol-1-yl)(7-(3,4-dichlorobenzyl)-2,7-diazaspiro[4.4]nonan-2-yl)methanone]: ≤ 100 nM and 100 to 1000 nM.
In the case of `O=C(N1CCC2(CCN(Cc3ccc(Cl)c(Cl)c3)C2)C1)n1cc(Cl)cn1` (single isomer, unassigned) [Example 140, (4-chloro-1H-pyrazol-1-yl)(7-(3,4-dichlorobenzyl)-2,7-diazaspiro[4.4]nonan-2-yl)methanone], the IC50 on FAAH and on MAGL was ≤ 100 nM in each case.
Take `O=C(c1cnn(C(=O)N2CC3CN(Cc4ccccc4Cl)CC3C2)c1)N1CCCCC1` (stereo not drawn) [Example 1, (5-(2-chlorobenzyl)hexahydropyrrolo[3,4-c]pyrrol-2(1H)-yl)(4-(piperidine-1-carbonyl)-1H-pyrazol-1-yl)methanone]: the figures for the IC50 on FAAH and on MAGL were ≤ 100 nM and 1000 to 10000 nM, respectively. Further, the figures for the inhibition at 1 µM on FAAH and at MAGL were ≥ 75% and 25 to 50%, respectively.
For `NC(=O)c1cnn(C(=O)N2CC3CN(Cc4ccc(N5CCOCC5)cc4C(F)(F)F)CC3C2)c1` (stereo not drawn) [Example 2, 1-(5-(4-morpholino-2-(trifluoromethyl)benzyl)octahydropyrrolo[3,4-c]pyrrole-2-carbonyl)-1H-pyrazole-4-carboxamide], in that order: ≤ 100 nM, ≤ 100 nM, ≥ 75% and ≥ 75%.
Consider `O=C(c1cnn(C(=O)N2CC3CN(Cc4cccc(Cl)c4)CC3C2)c1)N1CCCCC1` (stereo not drawn) [Example 3, (5-(3-chlorobenzyl)hexahydropyrrolo[3,4-c]pyrrol-2(1H)-yl)(4-(piperidine-1-carbonyl)-1H-pyrazol-1-yl)methanone], for which, on FAAH, the IC50 fell in the range of 100 to 1000 nM and the inhibition at 1 µM was ≥ 75%. Besides, on MAGL, the IC50 was in the range of 1000 to 10000 nM and the inhibition at 1 µM was 50 to 75%.
Consider `O=C(c1cnn(C(=O)N2CC3CN(Cc4ccc(Cl)cc4)CC3C2)c1)N1CCCCC1` (stereo not drawn) [Example 4, (5-(4-chlorobenzyl)hexahydropyrrolo[3,4-c]pyrrol-2(1H)-yl)(4-(piperidine-1-carbonyl)-1H-pyrazol-1-yl)methanone], for which, at FAAH, the IC50 lay in the range of 100 to 1000 nM and the inhibition at 1 µM is ≥ 75%. Besides, on MAGL, the IC50 lay in the range of 1000 to 10000 nM and the inhibition at 1 µM is 25 to 50%.
As to `O=C(c1cnn(C(=O)N2CC3CN(Cc4cc(Cl)ccc4Cl)CC3C2)c1)N1CCOCC1` (stereo not drawn) [Example 5, (5-(2,5-dichlorobenzyl)hexahydropyrrolo[3,4-c]pyrrol-2(1H)-yl)(4-(morpholine-4-carbonyl)-1H-pyrazol-1-yl)methanone], the inhibition at 1 µM at FAAH and on MAGL was ≥ 75% throughout.
In the case of `O=C(c1cnn(C(=O)N2CC3CN(Cc4cc(Cl)ccc4Cl)CC3C2)c1)N1CCN(C2CC2)CC1` (stereo not drawn) [Example 6, (4-cyclopropylpiperazin-1-yl)(1-(5-(2,5-dichlorobenzyl)octahydropyrrolo[3,4-c]pyrrole-2-carbonyl)-1H-pyrazol-4-yl)methanone], the values for the inhibition at 1 µM at FAAH and on MAGL were 0 to 25% and ≥ 75%, respectively.
Consider `O=C(c1cnn(C(=O)N2CC3CN(Cc4cccc(C(F)(F)F)c4)CC3C2)c1)N1CCOCC1` (stereo not drawn) [Example 7, (4-(morpholine-4-carbonyl)-1H-pyrazol-1-yl)(5-(3-(trifluoromethyl)benzyl)hexahydropyrrolo[3,4-c]pyrrol-2(1H)-yl)methanone], for which the inhibition at 1 µM on FAAH and on MAGL was ≥ 75% throughout.
`O=C(c1cnn(C(=O)N2CC3CN(Cc4cccc(C(F)(F)F)c4)CC3C2)c1)N1CCN(C2CC2)CC1` (stereo not drawn) [Example 8, (4-cyclopropylpiperazin-1-yl)(1-(5-(3-(trifluoromethyl)benzyl)octahydropyrrolo[3,4-c]pyrrole-2-carbonyl)-1H-pyrazol-4-yl)methanone]: the inhibition at 1 µM on FAAH and at MAGL was ≥ 75% in each case.
Take `O=C(c1cnn(C(=O)N2CC3CN(Cc4cc(Cl)cc(C(F)(F)F)c4)CC3C2)c1)N1CCCC1` (stereo not drawn) [Example 9, (5-(3-chloro-5-(trifluoromethyl)benzyl)hexahydropyrrolo[3,4-c]pyrrol-2(1H)-yl)(4-(pyrrolidine-1-carbonyl)-1H-pyrazol-1-yl)methanone]: the inhibition at 1 µM at FAAH and on MAGL was ≥ 75% in each case.
With `O=C(c1cnn(C(=O)N2CC3CN(Cc4cc(Cl)cc(C(F)(F)F)c4)CC3C2)c1)N1CCOCC1` (stereo not drawn) [Example 10, (5-(3-chloro-5-(trifluoromethyl)benzyl)hexahydropyrrolo[3,4-c]pyrrol-2(1H)-yl)(4-(morpholine-4-carbonyl)-1H-pyrazol-1-yl)methanone], the inhibition at 1 µM on FAAH and on MAGL was ≥ 75% throughout.
`O=C(c1cnn(C(=O)N2CC3CN(Cc4cc(Cl)cc(C(F)(F)F)c4)CC3C2)c1)N1CCN(C2CC2)CC1` (stereo not drawn) [Example 11, (5-(3-chloro-5-(trifluoromethyl)benzyl)hexahydropyrrolo[3,4-c]pyrrol-2(1H)-yl)(4-(4-cyclopropylpiperazine-1-carbonyl)-1H-pyrazol-1-yl)methanone]: the inhibition at 1 µM at FAAH and at MAGL was ≥ 75% each time.
On to `O=C(c1cnn(C(=O)N2CC3CN(Cc4ccc(N5CCOCC5)cc4C(F)(F)F)CC3C2)c1)N1CCCC1` (stereo not drawn) [Example 12, (5-(4-morpholino-2-(trifluoromethyl)benzyl)hexahydropyrrolo[3,4-c]pyrrol-2(1H)-yl)(4-(pyrrolidine-1-carbonyl)-1H-pyrazol-1-yl)methanone], for which the inhibition at 1 µM on FAAH and on MAGL was ≥ 75% each time.
`O=C(c1cnn(C(=O)N2CC3CN(Cc4ccc(N5CCOCC5)cc4C(F)(F)F)CC3C2)c1)N1CCOCC1` (stereo not drawn) [Example 13, (4-(morpholine-4-carbonyl)-1H-pyrazol-1-yl)(5-(4-morpholino-2-(trifluoromethyl)benzyl)hexahydropyrrolo[3,4-c]pyrrol-2(1H)-yl)methanone]: the inhibition at 1 µM at FAAH and at MAGL was ≥ 75% each time.
With `O=C(c1cnn(C(=O)N2CC3CN(Cc4ccc(N5CCOCC5)cc4C(F)(F)F)CC3C2)c1)N1CCN(C2CC2)CC1` (stereo not drawn) [Example 14, (4-cyclopropylpiperazin-1-yl)(1-(5-(4-morpholino-2-(trifluoromethyl)benzyl)octahydropyrrolo[3,4-c]pyrrole-2-carbonyl)-1H-pyrazol-4-yl)methanone], at FAAH, the 50% inhibitory concentration (IC50) was 1000 to 10000 nM and the inhibition at 1 µM was ≥ 75%. At MAGL, the IC50 was in the range of 100 to 1000 nM and the inhibition at 1 µM was ≥ 75%.
As to `O=C(c1cnn(C(=O)N2CC3CN(Cc4cccc(C(F)(F)F)c4)CC3C2)c1)N1CCCC1` (stereo not drawn) [Example 15, pyrrolidin-1-yl(1-(5-(3-(trifluoromethyl)benzyl)octahydropyrrolo[3,4-c]pyrrole-2-carbonyl)-1H-pyrazol-4-yl)methanone], the inhibition at 1 µM on FAAH and at MAGL was ≥ 75% in each case.
As for `NC(=O)c1cnn(C(=O)N2CC3CN(Cc4ccc(Cl)cc4)CC3C2)c1` (stereo not drawn) [Example 16, 1-(5-(4-chlorobenzyl)octahydropyrrolo[3,4-c]pyrrole-2-carbonyl)-1H-pyrazole-4-carboxamide], on FAAH, the IC50 is ≤ 100 nM and the inhibition at 1 µM is ≥ 75%. For the same compound, on MAGL, the IC50 fell in the range of 100 to 1000 nM and the inhibition at 1 µM was ≥ 75%.
